Where two headings read alike, the source gives them in different places.

One series has as its system HBV. The series can be described thus: anti HBV activity, HepG2.117 cell line, intracellular HBV DNA by real-time PCR. Type of series: cell-based, hepatitis B virus. To be noted: for EC50: Hepatitis B virus, read-out: HBV-AVE-HepG2.117_intra_EC50. Here is the method: The anti HBV activity was measured using the HepG2.117 cell line, a stable, inducible HBV producing cell line, which replicates HBV in the absence of doxicycline (Tet-off system). The HepG2 cell line is available from ATCC® under number HB-8065. Transfection of the HepG2 cell line can be as described in Sun and Nassal 2006 Journal of Hepatology 45 (2006) 636-645 “Stable HepG2-and Huh7-based human hepatoma cell lines for efficient regulated expression of infectious hepatitis B virus”.
For the antiviral assay, HBV replication was induced, followed by a treatment with serially diluted compound in 96-well plates. After 3 days of treatment, the antiviral activity was determined by quantification of intracellular HBV DNA using real-time PCR and an HBV specific primer set and probe.
For orientation: Quantitative PCR measures a nucleic acid by following its amplification.

Series [1] can be described thus: Cytotoxicity, ATPlite cell viability. The note with it: human, mean value, HepG2 or HepG2.117 cells. Format: cell-based. Here is the method: Cytotoxicity of the compounds was tested using HepG2 or HepG2.117 cells, incubated for 4 days in the presence of compounds. The viability of the cells was assessed using the Perkin Elmer ATPlite Luminescence Assay System.”
(In general: In ATP-based viability assays light output follows the ATP content of the culture.)

[2] abbreviates: 72 h, mean value, HepG2.117 cells, 3 days of treatment, intracellular HBV DNA.

Broadly, the CC50 is the concentration giving 50% cytotoxicity. With `Cn1cc(C(=O)C(=O)NC2(c3cn[nH]n3)CC(F)(F)C2)c(Cl)c1C(=O)Nc1ccc(F)c(Cl)c1` [Compound 3], in the series on HBV (setting [2]), the EC50 came out at 6 nM. In series [1], this compound registered a half-maximal cytotoxic concentration (CC50) at 4 days of 22000 nM.
The corresponding values for `Cn1cc(C(=O)C(=O)NC2(c3cn[nH]n3)CS(=O)(=O)C2)cc1C(=O)Nc1ccc(F)c(C#N)c1` [Compound 21] are 1270 nM and above 50000 nM.
The corresponding values for `Cc1c(C(=O)C(=O)N[C@H](CC(F)(F)F)c2cn[nH]n2)cn(C)c1C(=O)Nc1ccc(F)c(C#N)c1` (single isomer, unassigned) [47*R] are 21 nM and above 50000 nM.
The corresponding values for `Cc1c(C(=O)C(=O)N[C@H](CC(F)(F)F)c2cn[nH]n2)c(C)n(C)c1C(=O)Nc1ccc(F)c(C#N)c1` (single isomer, unassigned) [44*R] are 5 nM and above 50000 nM.
As to `Cc1c(C(=O)C(=O)N[C@@H](CC(F)(F)F)c2cn[nH]n2)cn(C)c1C(=O)Nc1ccc(F)c(Cl)c1` (single isomer, unassigned) [26*S], the EC50 in the series with HBV (setting [2]) amounted to 18 nM. The compound also gave a half-maximal cytotoxic concentration (CC50) at 4 days in series [1] above 50000 nM.
For `Cc1c(C(=O)C(=O)NC2(c3cn[nH]n3)CC(F)(F)C2)c(C#N)n(C)c1C(=O)Nc1ccc(F)c(Cl)c1` [Compound 55] the same measures were 809 nM and above 50000 nM.
The corresponding values for `Cn1cc(C(=O)C(=O)NC2(c3nc[nH]n3)CC(F)(F)C2)cc1C(=O)Nc1ccc(F)c(C#N)c1` [Compound 30] are 142 nM and 31100 nM.
For `Cc1cc(NC(=O)c2cc(C(=O)C(=O)NCc3cn[nH]n3)cn2C)ccc1F` [Ref. 59, reference compound] the same measures were 583 nM and above 50000 nM.
With `Cn1cc(C(=O)C(=O)NC2(c3c[nH]nn3)CC2)cc1C(=O)Nc1ccc(F)c(C#N)c1` [Compound 10], the EC50 in the series with HBV (setting [2]) is 150 nM. This compound also had a CC50 at 4 days in series [1] above 50000 nM.
The corresponding values for `Cc1c(C(=O)C(=O)N[C@@H](CC(F)(F)F)c2cn[nH]n2)c(C)n(C)c1C(=O)Nc1ccc(F)c(C#N)c1` (single isomer, unassigned) [44*S] are below 12 nM and above 50000 nM.
The corresponding values for `Cn1cc(C2(NC(=O)C(=O)c3cn(C)c(C(=O)Nc4ccc(F)c(Cl)c4)c3Cl)CC(F)(F)C2)nn1` [Compound 15] are 4 nM and above 50000 nM.
For `Cc1c(C(=O)C(=O)NC2(c3cn[nH]n3)CC(F)(F)C2)c(Cl)n(C)c1C(=O)Nc1ccc(F)c(Cl)c1` [Compound 35] the same measures were 4 nM and 5800 nM.
Turning to `Cc1nc(C2(NC(=O)C(=O)c3cc(C(=O)Nc4ccc(F)c(C#N)c4)n(C)c3)CC(F)(F)C2)n[nH]1` [Compound 22], the EC50 in the series on HBV (setting [2]) came out at 124 nM. Moreover, the 50% cytotoxic concentration (CC50) at 4 days in series [1] came out at 29500 nM.
The corresponding values for `Cn1ncc(C2(NC(=O)C(=O)c3cn(C)c(C(=O)Nc4ccc(F)c(Cl)c4)c3Cl)CC(F)(F)C2)n1` [Compound 16] are 3 nM and above 50000 nM.
The corresponding values for `Cn1cc(C(=O)C(=O)N[C@H](CC(F)F)c2cn[nH]n2)cc1C(=O)Nc1ccc(F)c(C#N)c1` (single isomer, unassigned) [24*R] are 46 nM and 9400 nM.
The corresponding values for `Cn1cc(C(=O)C(=O)NC2(c3ccccc3)CC(F)(F)C2)cc1C(=O)Nc1ccc(F)c(C#N)c1` [Compound 36] are 10 nM and 1100 nM.
Consider `Cc1c(C(=O)C(=O)N[C@H](CC(C)(F)F)c2cn[nH]n2)cn(C)c1C(=O)Nc1ccc(F)c(C#N)c1` (single isomer, unassigned) [49*R], for which, in the series on HBV (setting [2]), the EC50 worked out at 16 nM. Besides, in series [1], the CC50 at 4 days is above 50000 nM.
For the compound `Cc1c(C(=O)C(=O)NC2(c3cn[nH]n3)CC(F)(F)C2)cn(C)c1C(=O)Nc1ccc(F)c(Br)c1` [Compound 34], the EC50 in the series with HBV (setting [2]) is 4 nM. For the same compound, the CC50 at 4 days in series [1] stood at 26300 nM.
`Cn1cc(C(=O)C(=O)N[C@H](c2cnn[nH]2)C(C)(C)C)cc1C(=O)Nc1ccc(F)c(C#N)c1` (stereo in doubt) [Compound 11]: in the series with HBV (setting [2]), the EC50 came to 100 nM. Further, the CC50 at 4 days in series [1] stood at 26000 nM.
The corresponding values for `Cn1cc(C(=O)C(=O)N[C@]2(c3cn[nH]n3)CCC(F)(F)C2)cc1C(=O)Nc1ccc(F)c(C#N)c1` (single isomer, unassigned) [18*R] are 15 nM and 14100 nM.
With `Cc1c(C(=O)C(=O)NC2(c3cn[nH]n3)CC(F)(F)C2)c(F)c(C(=O)Nc2ccc(F)c(C#N)c2)n1C` [Compound 42], in the series with HBV (setting [2]), the EC50 stood at 2 nM. The CC50 at 4 days in series [1] is above 50000 nM.
The corresponding values for `Cn1cc(C(=O)C(=O)NC2(c3cn[nH]n3)CC(F)(F)C2)cc1C(=O)Nc1ccc(F)c(C#N)c1` [Compound 4] are 63 nM and 8200 nM.
The corresponding values for `COc1c(C(=O)C(=O)NC2(c3cn[nH]n3)CC(F)(F)C2)cn(C)c1C(=O)Nc1ccc(F)c(C#N)c1` [Compound 32] are 27 nM and 31700 nM.
For `Cc1c(C(=O)C(=O)N[C@]2(c3cn[nH]n3)C[C@H](O)C2)cn(C)c1C(=O)Nc1ccc(F)c(C#N)c1` [Compound 58cis] the same measures were 90 nM and above 50000 nM.
Take `Cn1cc(C(=O)C(=O)NC2(c3cn[nH]n3)CC(F)(F)C2)cc1C(=O)Nc1ccc(F)c(Cl)c1` [Compound 6]: the EC50 in the series on HBV (setting [2]) amounted to 17 nM. The compound also came in with a CC50 at 4 days in series [1] of 7100 nM.
For `Cn1cc(C(=O)C(=O)N[C@@H](CC(F)F)c2cn[nH]n2)cc1C(=O)Nc1ccc(F)c(C#N)c1` (single isomer, unassigned) [24*S] the same measures were 562 nM and 28200 nM.
The corresponding values for `Cn1cc(C(=O)C(=O)N[C@@]2(c3cn[nH]n3)CCC(F)(F)C2)cc1C(=O)Nc1ccc(F)c(C#N)c1` (single isomer, unassigned) [18*S] are 64 nM and 20700 nM.
The corresponding values for `Cn1cc(C(=O)C(=O)NC2(c3c[nH]cn3)CC(F)(F)C2)cc1C(=O)Nc1ccc(F)c(C#N)c1` [Compound 56] are 44 nM and 20000 nM.
Regarding `Cc1c(C(=O)C(=O)NC(C)(c2cn[nH]n2)C(F)(F)F)cn(C)c1C(=O)Nc1ccc(F)c(C#N)c1` (stereo not shown) [Compound 51], the EC50 in the series on HBV (setting [2]) was 13 nM. Besides, in series [1], the CC50 at 4 days is above 50000 nM.
For the compound `Cc1cc(NC(=O)c2cc(C(=O)C(=O)NC3(c4cn[nH]n4)CC(F)(F)C3)cn2C)ccc1F` [Compound 2, 4-[{[3,3-Difluoro-1-(2H-1,2,3-triazol-4-yl)cyclobutyl]amino}(oxo)acetyl]-N-(4-fluoro-3-methylphenyl)-1-methyl-1H-pyrrole-2-carboxamide], in the series on HBV (HepG2.117, 72 h), the EC50 amounted to 32 nM. In the series on HBV (from table 4 EC50 values), the “improved anti-HBV activity, fold improvement over Ref. compound 59” value is listed as around 18 fold. The half-maximal cytotoxic concentration (CC50) at 4 days in series [1] amounted to 23800 nM.
For `Cc1c(C(=O)C(=O)NC2(c3cn[nH]n3)CC(F)(F)C2)cn(C)c1C(=O)Nc1ccnc(C(F)F)c1` [Compound 53], in the series with HBV (setting [2]), the EC50 was determined as 33 nM. Also, the half-maximal cytotoxic concentration (CC50) at 4 days in series [1] was above 50000 nM.
The corresponding values for `Cc1c(C(=O)C(=O)N[C@@H](CC(F)(F)F)c2cn[nH]n2)cn(C)c1C(=O)Nc1ccc(F)c(C#N)c1` (single isomer, unassigned) [47*S] are 11 nM and above 50000 nM.
For `Cc1c(C(=O)C(=O)NC2(c3cn[nH]n3)CC(F)(F)C2)c(C2CC2)n(C)c1C(=O)Nc1ccc(F)c(Cl)c1` [Compound 54] the same measures were 3 nM and 26300 nM.

Source of the values: patent publication US11096931B2, “Amide derivatives useful in the treatment of HBV infection or HBV-induced diseases” (Janssen Sciences Ireland Unlimited Company, priority 2019, dated 2021).
